In patent US8163870B2, “Channel forming peptides” (Kansas State University Research Foundation, priority 2000, dated 2012):

Tests used:
[1] = tested on: tight junction-associated proteins (actin, ZO-1, occludin) in MDCK monolayers; assay: Confocal microscopy, immunolocalization of tight-junction associated proteins; format: cell-based, canine; settings: peptides 100 μM; EDTA 6 mM and hypotonic Ringer
Procedure: Confocal microscopy. Immunoreactivity to antibodies raised against tight-junction associated proteins was assessed by confocal microscopy (Zeiss, Thornwood, N.Y.). Samples for visualization were prepared from monolayers used in electrophysiological studies. After removal from Ussing chambers, monolayers were washed in Ringer solution and fixed overnight in 10% neutral buffered formalin. Monolayers were washed 3 times in PBS, permeabilized with 0.1% Triton X-100 in PBS, blocked with goat serum, and then exposed to primary antibody in a 1:500 dilution (rat anti-ZO-1, cat# MAB120, Chemicon, Temecula, Calif. or rabbit anti-occludin, cat.# 71-1500; Zymed, San Francisco, Calif.) for 1 hour at room temperature. After being washed 3 times in PBS, FITC-conjugated goat anti-rat (cat #AP136F, Chemicon) or goat anti-rabbit (cat #FI-1000; Vector Laboratories, Burlingame, Calif.) secondary antibodies were employed (1:1000 dilution) with exposure occurring for 1 hour at room temperature. TRITC-labeled phalloidin (0.1 mg/ml in methanol; Sigma Chemical Co.) was used for F-actin localization was applied concurrently with the secondary antibody. A KrAr laser was used to excite the fluorophores. Filter sets used for fluorescein were BP485/20 nm for excitation and BP515-540 nm for emission and for rhodamine BP530-585 nm for excitation and LP590 nm for emission.

MDCK monolayers = assay: FITC-dextran permeability assay; format: cell-based, canine; settings: SEQ ID NO. 27 100 μM; EDTA 3 mM in hypotonic Ringer
Procedure: Confluent MDCK cell monolayers were washed once with Ringer solution and placed in one of three treatments containing FITC-conjugated dextran (Sigma Chemical Co.) in the apical compartment; 1, Ringer solution in the apical and basolateral compartments; 2, Ringer solution apical and basolateral with SEQ ID No. 27 (also referred to herein as NC-1059) (100 μM) in the apical solution; 3, EDTA (3 mM) in Ringer solution that had been diluted 1:1 with distilled water in both the apical and basolateral compartments. Monolayers are incubated at 37° C. for 60 minutes and the solution in the basolateral well sampled to quantify fluorescently labeled dextran. Monolayers are then washed with Ringer solution to remove peptide, EDTA, and dextran, placed in tissue culture medium and returned to the incubator for two days before the assay was conducted again.
FITC-dextran permeability assay. Epithelial permeability to uncharged solutes of various sizes was assessed with monolayers grown on Snapwell tissue culture inserts as described above. […] Monolayers were incubated at 37° C. for 60 minutes and the solution in the basolateral well was sampled to quantify fluorescently labeled dextran. […]

cultured CF monolayers = assay: Glutathione transport in cultured CF monolayers; format: cell-based
[2] = Chemical cross-linking (BS3) and SDS-PAGE, oligomeric state of peptide in solution; format: physicochemical; settings: SDS-PAGE
Procedure: Chemical cross-linking: In order to visualize the oligomeric state of the peptide in solution a chemical cross-linking protocol was developed. Calculated amounts of each peptide were weighted out and dissolved in 1 mL of distilled water to make 1 mM stock solutions. A 100 mM stock solution of the chemical crosslinking reagent Bis[Sulfosuccinimidyl]suberate, BS^3, (Pierce Chemical Co., Rockford, Ill.) was prepared in dimethyl sulfoxide (DMSO). […] Sample were allowed to sit at room temperature for 15 minutes. 1-6 μL of 100 mM BS^3 was then added to the previously prepared peptide such that the crosslinking reagent was present in 20-fold excess. The final volume for each reaction was 100 μL. […] Each sample was then vacuum dried. Later dry samples were re-dissolved in 60 μL of distilled water along with 60 μL of a 2×-tricine SDS sample buffer (Novex, San Diego). All samples were then boiled at 100° C. for 5 minutes. 5 μL aliquots of each SDS boiled sample was then loaded into separate lanes of pre-cast, 1.0 mm, 10 well, 10-20% tricine gels (Novex, San Diego). Pre-made Novex tricine-SDS buffer was used in the electrophoresis. The reference well contained 1 μL of MultiMark® multi-colored molecular weight standard (Novex, San Diego). The electrophoresis was carried out at a constant 110 Volts for 90 minutes. […]

MDCK cells = format: cell-based, canine; settings: peptide at 500 μM
Excerpt: Cell culture: MDCK cells were a generous gift of Dr. Lawrence Sullivan (Kansas University Medical Center, Kansas City, Kans.). T84 cells were obtained from Dr. Daniel Devor (University of Pittsburgh, Pittsburgh, Pa.). MDCK and T84 cells were maintained with similar culture procedures. The culture medium was a 1:1 mixture of DMEM and Ham's F-12 (Gibco BRL, Grand Island, N.Y.) supplemented with 5% heat inactivated fetal bovine serum (BioWhittaker, Walkersville, Md.), and 1% penicillin and streptomycin (Gibco BRL). Cells were grown in plastic culture flasks in a humidified environment with 5% CO2 at 37° C. and passaged every 5-7 days. For Ussing chamber experiments, cells were plated on 1.13 cm^2 permeable supports (Snapwell™, Costar®, Cambridge, Mass.) at a density of approximately 1×10^6 cells/well and incubated in DMEM/F-12 supplemented with FBS and antibiotics (changed every other day) for 2-3 weeks prior to being mounted in modified Ussing flux chambers.
To form monolayers, the cells were plated onto the upper surface of a permeable membrane that forms the bottom of a plastic well. Two types were used. One was the Transwell™ insert (Costar®, Cambridge, Mass.) supported in a six-well tissue culture plate and the other type was the Snapwell™ (Costar®, Cambridge, Mass.). During incubation, the medium was replaced at 48-72 hour intervals. Confluent monolayers formed within 72 hours. Experiments were performed on the monolayers 6-9 days after the initial plating. Net fluid secretion responses were optimal after six days.
Solutions: Ringer solution was made fresh daily. The final concentration (in mM) was 120 NaCl, 25 NaHCO3 3.3 KH2HPO4, 0.8 K2HPO4, 1.2 MgCl2, 1.2 CaCl2, (290±2 mOsmol). All components of the Ringer solution were from Sigma (St. Louis, Mo.).
(§1) Epithelial electrical measurements: Transepithelial ion transport was evaluated in a modified Ussing chamber (Model DCV9, Navicyte, San Diego, Calif.). The Ussing chamber's fluid resistance compensation was completed in Ringer solution (see below). For electrical measurements cell monolayers were bathed in Ringer solution maintained at 37° C. and continuously bubbled with 5% CO2:95% O2. The transepithelial membrane potential (Vte) was clamped to zero and the transepithelial short circuit current (Isc), an indicator of net ion transport, was measured continuously with a voltage clamp apparatus (Model 558C, University of Iowa, Department of Bioengineering, Iowa City, Iowa). Data were digitally acquired at 1 Hz with a Macintosh computer (Apple Computer, Cuppertino, Calif.) using Aqknowledge software (ver. 3.2.6, BIOPAC Systems, Santa Barbara, Calif.) with an MP100A-CE interface.
as §1, with “Transepithelial” for “Epithelial electrical measurements: Transepithelial”, “(composition (in mM) was 120 NaCl, 25 NaHCO3 3.3 KH2HPO4, 0.8 K2HPO4, 1.2 MgCl2, 1.2 CaCl2).” for “(see below).”
MDCK cell monolayers (in the presence of 1-EBIO to maximize basolateral membrane K^+ conductance) were exposed on the apical aspect to escelating peptide concentrations. Maximal change in Isc (relative to the Isc prior to peptide exposure) was recorded following each increment in apical peptide concentration. […]

Molecule	distribution of actin, occludin and ZO-1 immunoreactivity [1]	permeation of 20 kDa FITC-dextran conjugate (MDCK monolayers)	glutathione transport (cultured CF monolayers)	aggregation state in solution [2]	Activity profile in MDCK cells (MDCK cells) [at 500 μM μA/cm2]
O=C(O)CN(CCN(CC(=O)O)CC(=O)O)CC(=O)O [EDTA]	profound changes in localization of the peri-junctional actin ring, as well as the distribution of ZO-1	highest level of permeation	–	–	–
PARVGLGITTVLTMTTQSSGSRAKKKK (PARVGLGITTVLTMTTQSSGSRAKKKK; Modified Homo sapiens) [SEQ ID No. 2, reference compound]	–	–	active but to a much lesser extent	only trace amounts of aggregates higher than trimer	12.5
